Results as given in patent US20100297025A1, “Novel compositions magnetic particles covered with gem-bisphosphonate derivatives” (Guerbet., priority 2002, published 2010).

Key:
[1] = molecular target: T1, folate binding protein (FBP) (Bos taurus, UniProt P02702); test: Affinity for Folate Binding Protein (FBP) by the BiaCore technique; settings: immobilized FBP
T1 construct: purchased Sigma F-0504
Method: 1/ Assay for Affinity of Example 17 for Folate Binding Protein (FBP) by the BiaCore Technique
PGM buffer: 100 mM KH2PO4, pH 7, 10% glycerol and 4 mM β-mercaptoethanol.
The immobilization of the FBP was carried out at 1 mg/ml in the PGM buffer according to the protocols recommended by BIAcore for coupling to amines. After this, the remaining active carboxylated groups are saturated with 1M of ethanolamine pH=8. The amount of FBP attached corresponds approximately to 1.5 ng/mm^2.
Example 17 was at a concentration of 0.170 mol/L of iron, which corresponds to 1.9×10^−5 mol of particles/L (considering a crystal of 7.5 nm, i.e. 8900 atoms of iron/particle).
The attachment of the folate was followed at four different concentrations (125, 250, 500 and 1000 μM) whereas that of example 17 was carried out at […] and at 10 nM (expressed as mol of particle/L). The association and the dissociation were studied with a flow at 25 μl/min. The association and dissociation phases are 5 minutes.

[2] = molecular target: T2, human MMP-3 (Homo sapiens, UniProt P08254); test: Inhibitory effect on human MMP-3 activity, fluorimetry; assay type: biochemical; settings: MMP-3, reference product
T2 construct: host or cells: sF9 (insect) cell line
T2 sequence (P08254 100-477): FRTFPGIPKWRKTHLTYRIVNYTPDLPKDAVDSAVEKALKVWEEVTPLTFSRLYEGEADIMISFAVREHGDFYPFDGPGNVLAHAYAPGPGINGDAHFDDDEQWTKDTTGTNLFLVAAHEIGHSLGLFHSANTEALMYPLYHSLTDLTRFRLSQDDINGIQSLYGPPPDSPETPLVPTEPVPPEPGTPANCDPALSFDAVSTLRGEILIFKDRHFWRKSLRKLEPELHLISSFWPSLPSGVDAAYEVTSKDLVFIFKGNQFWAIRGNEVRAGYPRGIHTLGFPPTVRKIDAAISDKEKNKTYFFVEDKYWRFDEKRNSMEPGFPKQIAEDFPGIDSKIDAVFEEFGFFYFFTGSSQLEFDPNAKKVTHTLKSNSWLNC
Method: More precisely, the test product, or the reference product or water, was added to a buffer solution, at pH=6, containing 6 nM of MMP-3. The fluorescence of this medium was evaluated at λex=340 nm and λem=405 nm by means of a plate reader (GeminiXS, Molecular Devices), after preincubation for 30 min at 37° C. (t=0). This measurement at t=0 serves to verify any possible interference of a product with the fluorescent detection. The enzyme reaction was then initiated by adding 10 μm of the substrate NFF-2. After incubation for 90 min at 37° C., the fluorescence was again evaluated under the same conditions as previously (t=90 min). The enzyme activity was then determined by subtracting the signal measured at t=0 from the signal measured at t=90 min.
The final result is expressed as percentage inhibition of the enzyme activity.

[3] = molecular target: αvβ5 (Homo sapiens, UniProt P06756+P18084); settings: cited from earlier work
Chain of αvβ5 (P06756 31-1048): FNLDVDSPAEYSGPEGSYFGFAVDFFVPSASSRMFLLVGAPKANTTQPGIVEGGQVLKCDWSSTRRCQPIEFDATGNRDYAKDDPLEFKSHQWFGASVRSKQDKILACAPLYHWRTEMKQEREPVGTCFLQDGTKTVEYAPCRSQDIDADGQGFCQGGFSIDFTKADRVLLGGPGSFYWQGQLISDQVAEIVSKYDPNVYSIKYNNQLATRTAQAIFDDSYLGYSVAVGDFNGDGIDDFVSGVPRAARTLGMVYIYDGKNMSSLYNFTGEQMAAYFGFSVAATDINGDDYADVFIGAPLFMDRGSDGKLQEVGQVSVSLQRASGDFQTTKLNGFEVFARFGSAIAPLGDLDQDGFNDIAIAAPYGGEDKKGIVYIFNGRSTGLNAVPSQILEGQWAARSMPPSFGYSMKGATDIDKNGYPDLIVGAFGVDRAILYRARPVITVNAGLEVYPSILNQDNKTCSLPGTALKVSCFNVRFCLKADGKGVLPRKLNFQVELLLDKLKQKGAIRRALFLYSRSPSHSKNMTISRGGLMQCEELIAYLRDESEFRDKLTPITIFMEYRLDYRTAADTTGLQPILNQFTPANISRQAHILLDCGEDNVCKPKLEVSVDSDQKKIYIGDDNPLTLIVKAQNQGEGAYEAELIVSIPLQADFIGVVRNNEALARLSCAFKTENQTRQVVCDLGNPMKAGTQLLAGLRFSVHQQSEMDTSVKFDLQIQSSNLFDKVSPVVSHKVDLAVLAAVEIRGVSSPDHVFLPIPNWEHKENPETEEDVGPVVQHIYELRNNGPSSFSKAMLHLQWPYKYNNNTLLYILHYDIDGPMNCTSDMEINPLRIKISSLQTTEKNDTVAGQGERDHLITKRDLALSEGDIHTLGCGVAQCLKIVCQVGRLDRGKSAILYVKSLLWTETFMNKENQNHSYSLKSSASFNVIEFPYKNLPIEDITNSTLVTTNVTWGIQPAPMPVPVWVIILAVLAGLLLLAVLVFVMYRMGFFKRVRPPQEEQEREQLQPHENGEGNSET
Chain of αvβ5 (P18084 24-799): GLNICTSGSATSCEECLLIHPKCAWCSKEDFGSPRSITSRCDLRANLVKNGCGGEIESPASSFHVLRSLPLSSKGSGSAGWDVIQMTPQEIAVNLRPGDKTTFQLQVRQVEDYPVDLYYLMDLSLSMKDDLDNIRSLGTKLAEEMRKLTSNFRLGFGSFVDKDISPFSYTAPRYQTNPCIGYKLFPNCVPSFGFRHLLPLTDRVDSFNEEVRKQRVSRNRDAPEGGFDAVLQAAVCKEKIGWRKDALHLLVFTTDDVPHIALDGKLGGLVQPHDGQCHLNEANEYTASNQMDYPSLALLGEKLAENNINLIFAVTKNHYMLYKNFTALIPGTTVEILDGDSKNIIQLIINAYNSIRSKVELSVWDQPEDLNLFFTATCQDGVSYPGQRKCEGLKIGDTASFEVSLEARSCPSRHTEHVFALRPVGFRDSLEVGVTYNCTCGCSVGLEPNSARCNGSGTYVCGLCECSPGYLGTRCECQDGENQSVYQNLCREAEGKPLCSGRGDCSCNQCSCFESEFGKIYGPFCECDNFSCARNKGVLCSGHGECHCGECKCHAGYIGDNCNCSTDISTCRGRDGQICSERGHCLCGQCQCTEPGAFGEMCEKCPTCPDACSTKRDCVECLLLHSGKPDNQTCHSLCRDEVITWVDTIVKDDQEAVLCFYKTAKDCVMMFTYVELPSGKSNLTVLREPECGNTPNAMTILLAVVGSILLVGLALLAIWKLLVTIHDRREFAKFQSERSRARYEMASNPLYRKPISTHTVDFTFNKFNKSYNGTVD

[4] = molecular target: α5β1 (Homo sapiens, UniProt P05556+P08648); settings: cited from earlier work
Chain of α5β1 (P08648 42-1049): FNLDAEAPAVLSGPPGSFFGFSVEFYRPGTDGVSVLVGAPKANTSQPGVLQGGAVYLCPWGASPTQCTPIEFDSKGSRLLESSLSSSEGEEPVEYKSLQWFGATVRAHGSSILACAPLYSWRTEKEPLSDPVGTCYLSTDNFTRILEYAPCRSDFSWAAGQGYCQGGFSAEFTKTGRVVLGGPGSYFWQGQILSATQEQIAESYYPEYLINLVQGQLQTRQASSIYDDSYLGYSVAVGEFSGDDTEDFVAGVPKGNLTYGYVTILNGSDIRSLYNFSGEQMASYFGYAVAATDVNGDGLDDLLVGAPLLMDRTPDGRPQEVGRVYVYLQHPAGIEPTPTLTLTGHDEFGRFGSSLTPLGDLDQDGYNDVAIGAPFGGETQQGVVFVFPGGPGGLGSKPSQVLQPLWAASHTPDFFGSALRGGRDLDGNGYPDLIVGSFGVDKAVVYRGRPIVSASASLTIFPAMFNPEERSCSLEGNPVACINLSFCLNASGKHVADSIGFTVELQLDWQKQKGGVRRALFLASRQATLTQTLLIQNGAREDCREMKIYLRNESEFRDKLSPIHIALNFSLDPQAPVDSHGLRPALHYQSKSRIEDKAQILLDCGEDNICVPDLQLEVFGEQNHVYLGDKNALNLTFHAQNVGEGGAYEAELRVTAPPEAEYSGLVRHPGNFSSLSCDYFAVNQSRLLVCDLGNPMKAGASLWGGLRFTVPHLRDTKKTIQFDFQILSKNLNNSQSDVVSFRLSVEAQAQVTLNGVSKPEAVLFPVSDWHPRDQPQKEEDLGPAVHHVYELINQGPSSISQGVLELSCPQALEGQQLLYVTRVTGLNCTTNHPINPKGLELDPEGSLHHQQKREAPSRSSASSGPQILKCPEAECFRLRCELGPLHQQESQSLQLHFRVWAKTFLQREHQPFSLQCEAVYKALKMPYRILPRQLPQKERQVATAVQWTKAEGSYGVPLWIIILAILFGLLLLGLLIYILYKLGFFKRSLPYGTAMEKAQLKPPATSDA
Chain of α5β1 (P05556 21-798): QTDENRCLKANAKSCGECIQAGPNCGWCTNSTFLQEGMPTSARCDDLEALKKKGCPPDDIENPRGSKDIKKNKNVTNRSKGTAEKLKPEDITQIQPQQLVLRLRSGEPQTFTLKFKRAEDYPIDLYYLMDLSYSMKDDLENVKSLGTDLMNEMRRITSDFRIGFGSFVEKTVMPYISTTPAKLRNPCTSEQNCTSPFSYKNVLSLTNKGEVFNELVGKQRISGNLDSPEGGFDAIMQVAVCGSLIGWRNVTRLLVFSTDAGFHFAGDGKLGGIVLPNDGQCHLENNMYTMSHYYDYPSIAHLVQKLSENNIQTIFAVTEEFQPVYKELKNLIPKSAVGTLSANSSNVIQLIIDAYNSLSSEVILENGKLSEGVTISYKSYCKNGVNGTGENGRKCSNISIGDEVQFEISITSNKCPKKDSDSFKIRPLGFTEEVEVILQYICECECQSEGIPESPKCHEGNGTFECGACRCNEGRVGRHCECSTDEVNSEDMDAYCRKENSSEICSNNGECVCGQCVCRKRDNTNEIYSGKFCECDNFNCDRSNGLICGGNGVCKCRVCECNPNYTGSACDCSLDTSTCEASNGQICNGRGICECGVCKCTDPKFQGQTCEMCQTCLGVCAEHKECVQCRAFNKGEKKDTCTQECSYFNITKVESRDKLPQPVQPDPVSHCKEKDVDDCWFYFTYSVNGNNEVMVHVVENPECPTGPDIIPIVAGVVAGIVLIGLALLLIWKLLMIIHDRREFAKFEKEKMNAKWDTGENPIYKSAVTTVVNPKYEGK

T1 sequence (P02702 20-234): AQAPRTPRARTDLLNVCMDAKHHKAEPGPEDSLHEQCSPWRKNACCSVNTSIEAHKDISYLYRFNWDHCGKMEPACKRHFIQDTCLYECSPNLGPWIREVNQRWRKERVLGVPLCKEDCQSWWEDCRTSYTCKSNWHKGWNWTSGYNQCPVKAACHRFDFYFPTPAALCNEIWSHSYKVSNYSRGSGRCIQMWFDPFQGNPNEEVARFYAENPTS

Nc1nc2ncc(CNc3ccc(C(=O)N[C@@H](CCC(=O)O)C(=O)O)cc3)nc2c(=O)[nH]1 [Folic acid]
kon ([1]; flow 25 μl/min, read-out: Association rate ka): 1000 M⁻¹ s⁻¹ | koff ([1]; flow 25 μl/min, read-out: Dissociation rate kd): 0.0016 s⁻¹ | Kd ([1]; read-out: Affinity constant KD): 1600 nM

CNC(=O)[C@H](Cc1c[nH]c2ccccc12)NC(=O)[C@@H](CC(=O)NO)CC(C)C [Ilomastat]
IC50 [2]: 130 nM

cyclo(ARGD-Mamb) [XJ735]
blocking of other integrins [3]: does not block | blocking of other integrins [4]: does not block
